How the values were obtained:
OE19 (3A1) = molecular target: T1, OE19 (3A1) (Homo sapiens, UniProt P30838); test: Cellular ALDEFLUOR assay in OE19 cells (preferential ALDH3A1 expression)
T1 sequence (P30838 1-453): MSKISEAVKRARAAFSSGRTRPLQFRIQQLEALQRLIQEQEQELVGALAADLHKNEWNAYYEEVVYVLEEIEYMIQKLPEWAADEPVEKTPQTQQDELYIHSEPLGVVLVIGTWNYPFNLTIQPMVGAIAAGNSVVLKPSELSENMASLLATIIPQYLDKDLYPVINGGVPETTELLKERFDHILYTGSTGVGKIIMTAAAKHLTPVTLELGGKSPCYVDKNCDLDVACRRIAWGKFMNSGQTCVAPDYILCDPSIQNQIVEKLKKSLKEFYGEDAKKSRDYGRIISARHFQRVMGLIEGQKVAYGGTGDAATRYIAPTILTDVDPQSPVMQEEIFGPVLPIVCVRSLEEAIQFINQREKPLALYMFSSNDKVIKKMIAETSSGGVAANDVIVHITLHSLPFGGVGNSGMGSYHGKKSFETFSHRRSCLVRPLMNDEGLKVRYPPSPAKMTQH

Human ALDH3A1 = molecular target: T2, Human ALDH3A1 (Homo sapiens, UniProt P30838); test: ALDH3A1 biochemical assay (benzaldehyde/NADP+, diaphorase-resazurin readout, 1,536-well)
T2 sequence (P30838 1-453): T1 sequence (P30838 1-453)

[1] = Table S4, biochemical curve class
[2] = Table S5, biochemical curve class

Structure (SMILES) | AC50 (OE19 (3A1)) | Cell_Efficacy (OE19 (3A1); Table S4, OE19 cells) | Cell_CC-v2 (OE19 (3A1); Table S4, cellular curve class) | AC50 (Human ALDH3A1) | Efficacy (Human ALDH3A1; Table S4, biochemical) | CC-v2 (Human ALDH3A1; [1]) | Cell_Efficacy (OE19 (3A1); Table S5, OE19 cells) | Cell_CC-v2 (OE19 (3A1); Table S5, cellular curve class) | Efficacy (Human ALDH3A1; Table S5, biochemical) | CC-v2 (Human ALDH3A1; [2])
COc1ccc(N2CCN(c3nc(C(=O)NCc4cccc(C(F)(F)F)c4)cs3)CC2)cc1 [NCGC01211588-01] | 1970 nM | -97.51 | -1.1 | 1290 nM | -45.52 | -1.2 |  |  |  | 
Cc1cccc(CNC(=O)c2csc(N3CCN(c4cccc(C#N)c4)CC3)n2)c1 [NCGC01210664-01] | 11100 nM | -103.93 | -2.1 | 1020 nM | -83.70 | -1.1 |  |  |  | 
COc1cc(CNC(=O)c2csc(N3CCN(c4cccc(C(F)(F)F)c4)CC3)n2)ccc1F [NCGC01396486-01] |  |  |  | 15.9 nM |  |  | 0.00 | 4 | -100.89 | -1.1
COc1cc(N2CCN(c3nc(C(=O)NCc4cccc(C)c4)cs3)CC2)ccc1F [NCGC01211397-01] | 2790 nM | -82.14 | -1.1 | 2890 nM | -71.38 | -1.2 |  |  |  | 
Cc1cccc(CNC(=O)c2csc(N3CCN(c4cccc([S+](C)(=O)[O-])c4)CC3)n2)c1 [NCGC01210723-01] | 1240 nM | -75.10 | -1.2 | 3640 nM | -72.64 | -1.2 |  |  |  | 
Cc1cccc(CNC(=O)c2csc(N3CCN(c4ccc(C5(C#N)CC5)cc4)CC3)n2)c1 [NCGC01210256-01] | 15700 nM | -71.00 | -1.4 | 14500 nM | -66.81 | -1.2 |  |  |  | 
Cc1cccc(CNC(=O)c2csc(N3CCN(c4cncc(Br)c4)CC3)n2)c1 [NCGC01212814-01] |  | 0.00 | 4 | 1290 nM | -92.59 | -1.1 |  |  |  | 
CC(=O)c1ccc(CNC(=O)c2csc(N3CCN(c4cccc(C(F)(F)F)c4)CC3)n2)cc1 [NCGC01397292-01] | 683 nM |  |  | 20 nM |  |  | -111.50 | -2.1 | -100.00 | -1.1
Cc1cccc(CNC(=O)c2csc(N3CCN(c4ccccc4Cl)CC3)n2)c1 [NCGC01211121-01] | 12400 nM | -81.66 | -1.3 | 910 nM | -88.53 | -1.1 |  |  |  | 
CC(C)(C)c1cc(CNC(=O)c2csc(N3CCN(c4cccc(C(F)(F)F)c4)CC3)n2)cc(C(C)(C)C)c1 [NCGC01407780-01] |  |  |  |  |  |  | 0.00 | 4 | -7.18 | 4
O=C(NCc1ccc(C#CC2CC2)cc1)c1csc(N2CCN(c3cccc(C(F)(F)F)c3)CC2)n1 [NCGC01407809-01] | 9650 nM |  |  | 14.1 nM |  |  | -60.41 | -1.4 | -101.87 | -1.1
Cc1cccc(CNC(=O)c2csc(N3CCN(c4ccccc4F)CC3)n2)c1 [NCGC01211127-01] | 4950 nM | -89.89 | -1.1 | 1020 nM | -98.80 | -1.1 |  |  |  | 
Cc1cccc(CNC(=O)c2csc(N3CCN(c4ccc(C)c(C)c4)CC3)n2)c1 [NCGC01211295-01] | 2210 nM | -85.13 | -1.3 | 1020 nM | -92.09 | -1.1 |  |  |  | 
CCc1ccc(N2CCN(c3nc(C(=O)NCc4cccc(C)c4)cs3)CC2)cc1 [NCGC01211128-01] | 3130 nM | -86.59 | -1.1 | 910 nM | -85.15 | -1.1 |  |  |  | 
O=C(NCc1ccc2cc(Cl)ccc2c1)c1csc(N2CCN(c3cccc(C(F)(F)F)c3)CC2)n1 [NCGC01407805-01] | 965 nM |  |  | 2.8 nM |  |  | -69.34 | -1.4 | -102.00 | -1.1
O=C(NCc1cccc(COc2ccccc2)c1)c1csc(N2CCN(c3cccc(C(F)(F)F)c3)CC2)n1 [Compound 18] | 43.1 nM |  |  | 14.1 nM |  |  | -79.42 | -1.1 | -100.33 | -1.1

Structure (SMILES) | AC50 (OE19 (3A1)) | Cell_Efficacy (OE19 (3A1); Table S4, OE19 cells) | Cell_CC-v2 (OE19 (3A1); Table S4, cellular curve class) | AC50 (Human ALDH3A1) | Efficacy (Human ALDH3A1; Table S4, biochemical) | CC-v2 (Human ALDH3A1; [1]) | Cell_Efficacy (OE19 (3A1); Table S5, OE19 cells) | Cell_CC-v2 (OE19 (3A1); Table S5, cellular curve class) | Efficacy (Human ALDH3A1; Table S5, biochemical) | CC-v2 (Human ALDH3A1; [2])
O=C(Nc1ccc(CNC(=O)c2csc(N3CCN(c4cccc(C(F)(F)F)c4)CC3)n2)cc1)c1ccc(F)cc1 [NCGC01407975-01] | 100 nM |  |  | 355 nM |  |  | -85.75 | -1.1 | -39.06 | -1.2
NC(=O)c1csc(N2CCN(c3cccc(C(F)(F)F)c3)CC2)n1 [NCGC01407961-01] | 28200 nM |  |  |  |  |  | -38.73 | -2.3 | -23.04 | 4
O=C(NCc1ccc2c(c1)COC2=O)c1csc(N2CCN(c3cccc(C(F)(F)F)c3)CC2)n1 [NCGC01396481-01] | 342 nM |  |  | 39.8 nM |  |  | -73.69 | -1.4 | -98.89 | -1.1
Cc1cccc(CNC(=O)c2csc(N3CCN(c4cccc([N+](=O)[O-])c4)CC3)n2)c1 [Compound 8] | 500 nM | -115.29 | -2.1 | 360 nM | -84.72 | -1.1 |  |  |  | 
Cc1cccc(CNC(=O)c2csc(N3CCN(c4ccc(Br)cc4)CC3)n2)c1 [NCGC01211165-01] | 700 nM | -91.24 | -1.1 | 810 nM | -72.77 | -1.2 |  |  |  | 
Cc1cccc(CNC(=O)c2csc(N3CCN(c4ccccc4Br)CC3)n2)c1 [Compound 9] | 8810 nM | -81.02 | -1.3 | 410 nM | -99.96 | -1.1 |  |  |  | 
Cc1ccc(C)n1-c1ccc(CNC(=O)c2csc(N3CCN(c4cccc(C(F)(F)F)c4)CC3)n2)cc1 [NCGC01408046-01] |  |  |  | 15800 nM |  |  | -23.84 | 4 | -91.30 | -1.1
O=C(Nc1ccc(F)cc1)c1ccc(CNC(=O)c2csc(N3CCN(c4cccc(C(F)(F)F)c4)CC3)n2)cc1 [NCGC01407706-01] |  |  |  | 89.2 nM |  |  | 0.00 | 4 | -65.00 | -1.2
Cc1cccc(CNC(=O)c2csc(N3CCN(c4ccc(C(N)=O)cc4)CC3)n2)c1 [NCGC01211194-01] | 880 nM | -43.91 | -1.2 | 40800 nM | -38.00 | -2.2 |  |  |  | 
CC(C)(C)c1cccc(CNC(=O)c2csc(N3CCN(c4cccc(C(F)(F)F)c4)CC3)n2)c1 [NCGC01407765-01] | 282 nM |  |  | 447 nM |  |  | -76.28 | -1.2 | -37.12 | -1.2
O=C(Nc1ccc(CNC(=O)c2csc(N3CCN(c4cccc(C(F)(F)F)c4)CC3)n2)cc1)c1ccncc1 [NCGC01397389-01] | 7080 nM |  |  |  |  |  | -125.53 | -2.1 | -20.50 | 4
O=C(NCc1ccc(-c2ccsc2)cc1)c1csc(N2CCN(c3cccc(C(F)(F)F)c3)CC2)n1 [NCGC01397331-01] | 3050 nM |  |  | 4 nM |  |  | -82.49 | -1.3 | -97.11 | -1.1
Cc1cccc(CNC(=O)c2csc(N3CCN(c4cccc(C)c4)CC3)n2)c1 [NCGC01211399-01] | 5560 nM | -101.59 | -1.3 | 1150 nM | -77.88 | -1.2 |  |  |  | 
O=C(NCc1cccc([S+](=O)([O-])C(F)(F)F)c1)c1csc(N2CCN(c3cccc(C(F)(F)F)c3)CC2)n1 [NCGC01397299-01] | 79.4 nM |  |  | 447 nM |  |  | -61.99 | -1.2 | -37.47 | -1.2
Cc1cccc(CNC(=O)c2csc(N3CCN(c4cc(F)cc(F)c4)CC3)n2)c1 [NCGC01211133-01] | 1570 nM | -95.95 | -1.1 | 650 nM | -87.41 | -1.1 |  |  |  | 
